{
  "source": "BindingDB's records for doi:10.1016/j.chembiol.2004.11.007",
  "about": "(University of Sheffield, 2005)",
  "data": [
    {"target": "Calmodulin-1 (Homo sapiens, UniProt P0DP23)", "assay": "Fluorescence spectroscopy", "experimental": "Experiments were conducted with HITACHI-4500 and Shimadzu RF-5301 fluorescence spectrophotometer.", "units": {"Kd": "µM"}, "values": [
      {"smiles": "COC(=O)[C@@H](CC(=O)c1cccc(C(=O)C[C@@H](Cc2c[nH]c3ccccc23)C(=O)OC)c1)Cc1c[nH]c2ccccc12", "note": "[BT1]", "Kd": 10},
      {"smiles": "O=S(=O)(Nc1ccc(NS(=O)(=O)c2cccc3ccccc23)cc1)c1cccc2ccccc12", "note": "[BN1]", "Kd": 0.07},
      {"smiles": "O=S(=O)(Nc1cccc(NS(=O)(=O)c2cccc3ccccc23)c1)c1cccc2ccccc12", "note": "[BN2]", "Kd": 0.01},
      {"smiles": "COC(=O)[C@@H](CC(=O)Cc1ccc(/C=C/c2ccc(CC(=O)C[C@@H](Cc3c[nH]c4ccccc34)C(=O)OC)cc2)cc1)Cc1c[nH]c2ccccc12", "note": "[BT2]", "Kd": 9}
    ]}
  ]
}
